The values below come from patent publication US20240050428A1 (Cullgen (Shanghai), Inc., priority 2020, published 2024).

Test [1] concerns MOLM-13 cells. Briefly: Cell viability assay (CellTiter-Glo) in MOLM-13 cells, alone or with gilteritinib. The format is cell-based. The following applies: Homo sapiens, MOLM-13, 72 h, MOLM-13 cells, CellTiter-Glo. On the technique in general: ATP-based viability assays read luminescence as a measure of living cells.
Test [2] deals with MV4;11 cells. Briefly: Cell viability assay (CellTiter-Glo) in MV4;11 cells, alone or with gilteritinib. The settings on record: Homo sapiens, MV4-11, 72 h, MV4;11 cells, CellTiter-Glo, read-out: MV4. The format is cell-based.
Setting [3] is: compound alone (without gilteritinib), three days, read-out: MOLM-13 IC50.
[4] abbreviates: with gilteritinib 20 nM, three days, read-out: MOLM-13 IC50 gilteritinib.
Where [5] appears, read: compound alone (without gilteritinib), three days, 11 IC50.
[6] abbreviates: with gilteritinib 10 nM, three days, 11 IC50 gilteritinib.

Read-outs that look alike come from different tables or passages of the source. A value given as a limit tells only on which side of the number the result lay.

For the molecule `Cc1ccccc1C(=O)N1CCN(C(=O)CCCCCNc2ccc3c(c2)C(=O)N(C2CCC(=O)NC2=O)C3=O)CC1` (stereo not shown) [GS-016, 2-(2,6-Dioxopiperidin-3-yl)-5-((6-(4-(2-methylbenzoyl)piperazin-1-yl)-6-oxohexyl)amino)isoindoline-1,3-dione], the IC50 is 86 nM in test [1] (with 20 nM gilteritinib, 3 days, read-out: MOLM-13 IC50 gilteritinib); above 10000 nM in test [1] (without gilteritinib, 3 days, read-out: MOLM-13 IC50); above 10000 nM in test [2] (with 10 nM gilteritinib, 3 days, 11 IC50 gilteritinib); above 10000 nM in test [2] (without gilteritinib, 3 days, 11 IC50).

For `O=C1CCC(N2Cc3c(Nc4ccnc(Nc5cccc(C(=O)N6CCC(n7cc(-c8cnc9ccccc9n8)cn7)CC6)c5)n4)cccc3C2=O)C(=O)N1` (stereo not shown) [GS-079, 3-(1-Oxo-4-((2-((3-(4-(4-(quinoxalin-2-yl)-1H-pyrazol-1-yl)piperidine-1-carbonyl)phenyl)amino)pyrimidin-4-yl)amino)isoindolin-2-yl)piperidine-2,6-dione], the IC50 in test [1] (setting [3]) was above 1000 nM; in test [1] (setting [4]), 100 to 1000 nM; in test [2] (setting [5]), 100 to 1000 nM; in test [2] (setting [6]), 10 to 100 nM.

On to `CN1CCN(c2cccc3ncc(-c4cnn(C5CC(CNc6ccc7c(c6)C(=O)N(C6CCC(=O)NC6=O)C7=O)C5)c4)nc23)CC1` (stereo not shown) [GS-398, 2-(2,6-Dioxopiperidin-3-yl)-5-(((3-(4-(8-(4-methylpiperazin-1-yl)quinoxalin-2-yl)-1H-pyrazol-1-yl)cyclobutyl)methyl)amino)isoindoline-1,3-dione], for which the IC50 in test [1] (setting [3]), in test [1] (setting [4]), in test [2] (setting [5]) and in test [2] (setting [6]) was above 1000 nM throughout.

As to `O=C1CCC(N2Cc3ccc(CCCCC4CC(n5cc(-c6cnc7ccccc7n6)cn5)C4)cc3C2=O)C(=O)N1` (stereo not shown) [GS-225, 3-(1-Oxo-6-(4-(3-(4-(quinoxalin-2-yl)-1H-pyrazol-1-yl)cyclobutyl)butyl)isoindolin-2-yl)piperidine-2,6-dione], the IC50 in test [1] (setting [3]) is above 1000 nM; in test [1] (setting [4]) it was 10 to 100 nM; in test [2] (setting [5]) it was 100 to 1000 nM; in test [2] (setting [6]), 10 to 100 nM.

As for `O=C1CCC(N2Cc3c(NC4CCCN(Cc5cccc(N6CCC(n7cc(-c8cnc9ccccc9n8)cn7)CC6)c5)C4)cccc3C2=O)C(=O)N1` (stereo not shown) [GS-133, 3-(1-Oxo-4-((1-(3-(4-(4-(quinoxalin-2-yl)-1H-pyrazol-1-yl)piperidin-1-yl)benzyl)piperidin-3-yl)amino)isoindolin-2-yl)piperidine-2,6-dione], the IC50 in test [1] (setting [3]), in test [1] (setting [4]), in test [2] (setting [5]) and in test [2] (setting [6]) was above 1000 nM in each case.

Turning to `O=C1CCC(N2C(=O)c3ccc(NCCCCC(=O)N4CCC(n5cc(-c6cnc7ccc(N8CCNCC8)cc7n6)cn5)CC4)cc3C2=O)C(=O)N1` (stereo not shown) [GS-543, 2-(2,6-Dioxopiperidin-3-yl)-5-((5-oxo-5-(4-(4-(7-(piperazin-1-yl)quinoxalin-2-yl)-1H-pyrazol-1-yl)piperidin-1-yl)pentyl)amino)isoindoline-1,3-dione], the IC50 in test [1] (setting [3]) is 10 to 100 nM; in test [1] (compound with gilteritinib 20 nM, three days, read-out: MOLM-13 IC50 gilteritinib), below 10 nM; in test [2] (setting [5]), 10 to 100 nM; in test [2] (compound with gilteritinib 10 nM, three days, 11 IC50 gilteritinib), below 10 nM.

On to `O=C1CCC(N2C(=O)c3ccc(NCCOCCC(=O)N4CCC(n5cc(-c6cnc7ccccc7n6)cn5)CC4)cc3C2=O)C(=O)N1` (stereo not shown) [GS-324, 2-(2,6-Dioxopiperidin-3-yl)-5-((2-(3-oxo-3-(4-(4-(quinoxalin-2-yl)-1H-pyrazol-1-yl)piperidin-1-yl)propoxy)ethyl)amino)isoindoline-1,3-dione], for which the IC50 in test [1] (setting [3]) was above 1000 nM; in test [1] (setting [4]), 10 to 100 nM; in test [2] (setting [5]) it was above 1000 nM; in test [2] (setting [6]), 100 to 1000 nM.
